Assays:
[1] = molecular target: FGFR3-BAIAP2L1 Ba/F3 cells (Homo sapiens, UniProt P22607); assay: Ba/F3 cell viability assay (CellTiter-Glo 2.0), FGFR3-BAIAP2L1 Ba/F3; format: cell-based; conditions: for Ba/F3 FGFR1/FGFR3 Selectivity: FGFR3 > FGFR1 selectivity ratio in Ba/F3 FGFR fusion cell based assays; for IC50: read-out: Ba/F3 Cells FGFR3 (IC50 nM), FGFR3-BAIAP2L1 Ba/F3 cells, 48 hours, Cell Titer Glo 2.0
Text: (§1) Experimental Purpose: Recombinant kinase fusions are transduced into parental Ba/F3, which becomes dependent upon this constitutive kinase activity for IL3-independent survival. Inhibition of kinase activity leads to cell death, which is monitored using CellTiter-Glo® 2.0 (Promega) which measures intracellular ATP concentration that in turn serves as a marker for viability. FGFR1-BCR Ba/F3 and FGFR3-BAIAP2L1 Ba/F3 were obtained from Advanced Cellular Dynamics (Seattle, WA)
(§2) Cell Viability Assay Procedure: Cell Titer-Glo® 2.0 Luminescent cell viability assay reagent was purchased from Promega (Madison, WI). FGFR1-BCR Ba/F3 and FGFR3-BAIAP2L1 Ba/F3 cells were cultured in RPMI1640 media supplemented with 10% fetal bovine serum. Cultures were maintained at 37° C. in a humidified atmosphere of 5% C02 and 95% air.
(§3) Cells were plated in 96-well clear bottom/white plates (Corning #3903) at 10,000 cells/well in 100 μl of media, incubated overnight. The next day, test compound DMSO stock solutions were made at 10 mM and 2 μM final concentration. Compounds were then added to cells in a 9-dose, 10-fold dilution series starting at 30 μM with an HP 300e Digital Dispenser (each dose was applied in triplicate). DMSO was backfilled to each well up to 301 nL total volume of test compound+DMSO, and a total of 301 nL DMSO was added to a control/no test compound well in triplicate. The cells in cell culture plates were incubated with the compounds at 37° C. and 5% C02 for 48 hours. Then 50 μl of Cell Titer Glo 2.0 reagent was added to each well of the cell culture plates. The contents were covered from light and mixed on an orbital shaker at room temperature for 10 min. Luminescence was recorded by a Synergy H1 Microplate Reader (Biotek, Winooski, VT). Cells were assessed as a percentage of DMSO only treated control cells. Curves were plotted and IC50 values were calculated using the GraphPad Prism 8 program based on a sigmoidal dose-response equation (4 parameter).

FGFR1-BCR Ba/F3 cells = FGFR1-BCR Ba/F3 cells (Homo sapiens, UniProt P11362); assay: Ba/F3 cell viability assay (CellTiter-Glo 2.0), FGFR1-BCR Ba/F3; format: cell-based; conditions: read-out: Ba/F3 Cells FGFR1 (IC50 nM), 48 hours, Cell Titer Glo 2.0
Text: as §1, §2, §3

FGFR1 = FGFR1 (Homo sapiens (Human), UniProt P11362); assay: Kinase assay, binding constants (Kd), kinase-tagged T7 phage, qPCR
Procedure, shortened: (§4)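 Kinase-tagged T7 phage (grown in BL21-derived E. coli) competed with test compound for immobilized biotinylated ligand on streptavidin beads. Kds came from an 11-point 3-fold dilution series at 0.9% final DMSO. Bound kinase was eluted with non-biotinylated ligand and quantified by qPCR, with Hill slope fixed at −1.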

FGFR2 = FGFR2 (Homo sapiens (Human), UniProt P21802); assay: as above
Procedure, shortened: as §4

FGFR3 = FGFR3 (Homo sapiens (Human), UniProt P22607); assay: as above
Procedure, shortened: as §4

FGFR3 (V555M) = FGFR3 (V555M) (Homo sapiens (Human), UniProt P22607, V555M); assay: as above; conditions: V555M mutant
Procedure, shortened: as §4

FGFR4 = FGFR4 (Homo sapiens (Human), UniProt P22455); assay: as above
Procedure, shortened: as §4

FGFR3 (V555M), sequence (P22607 23-806 V555M): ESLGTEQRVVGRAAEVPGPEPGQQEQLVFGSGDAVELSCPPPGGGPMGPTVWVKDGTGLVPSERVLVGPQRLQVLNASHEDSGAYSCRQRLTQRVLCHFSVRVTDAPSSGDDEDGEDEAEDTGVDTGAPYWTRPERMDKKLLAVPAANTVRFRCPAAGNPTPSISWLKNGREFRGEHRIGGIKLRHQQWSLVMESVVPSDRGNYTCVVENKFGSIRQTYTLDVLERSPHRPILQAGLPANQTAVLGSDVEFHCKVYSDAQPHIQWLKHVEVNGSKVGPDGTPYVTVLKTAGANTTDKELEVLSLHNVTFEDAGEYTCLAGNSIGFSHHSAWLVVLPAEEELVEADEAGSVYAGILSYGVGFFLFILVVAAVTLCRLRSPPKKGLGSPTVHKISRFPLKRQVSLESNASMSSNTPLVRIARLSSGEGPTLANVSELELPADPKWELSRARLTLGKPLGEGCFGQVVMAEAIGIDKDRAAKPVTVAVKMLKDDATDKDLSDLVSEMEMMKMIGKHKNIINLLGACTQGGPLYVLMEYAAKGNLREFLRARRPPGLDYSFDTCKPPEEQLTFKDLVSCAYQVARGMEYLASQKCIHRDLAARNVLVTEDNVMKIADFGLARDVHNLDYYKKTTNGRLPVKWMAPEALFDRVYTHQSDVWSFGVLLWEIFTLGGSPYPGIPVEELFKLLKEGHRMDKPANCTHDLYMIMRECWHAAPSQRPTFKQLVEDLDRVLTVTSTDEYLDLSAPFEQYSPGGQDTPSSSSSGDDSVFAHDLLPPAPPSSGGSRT
FGFR4, sequence (P22455 22-802): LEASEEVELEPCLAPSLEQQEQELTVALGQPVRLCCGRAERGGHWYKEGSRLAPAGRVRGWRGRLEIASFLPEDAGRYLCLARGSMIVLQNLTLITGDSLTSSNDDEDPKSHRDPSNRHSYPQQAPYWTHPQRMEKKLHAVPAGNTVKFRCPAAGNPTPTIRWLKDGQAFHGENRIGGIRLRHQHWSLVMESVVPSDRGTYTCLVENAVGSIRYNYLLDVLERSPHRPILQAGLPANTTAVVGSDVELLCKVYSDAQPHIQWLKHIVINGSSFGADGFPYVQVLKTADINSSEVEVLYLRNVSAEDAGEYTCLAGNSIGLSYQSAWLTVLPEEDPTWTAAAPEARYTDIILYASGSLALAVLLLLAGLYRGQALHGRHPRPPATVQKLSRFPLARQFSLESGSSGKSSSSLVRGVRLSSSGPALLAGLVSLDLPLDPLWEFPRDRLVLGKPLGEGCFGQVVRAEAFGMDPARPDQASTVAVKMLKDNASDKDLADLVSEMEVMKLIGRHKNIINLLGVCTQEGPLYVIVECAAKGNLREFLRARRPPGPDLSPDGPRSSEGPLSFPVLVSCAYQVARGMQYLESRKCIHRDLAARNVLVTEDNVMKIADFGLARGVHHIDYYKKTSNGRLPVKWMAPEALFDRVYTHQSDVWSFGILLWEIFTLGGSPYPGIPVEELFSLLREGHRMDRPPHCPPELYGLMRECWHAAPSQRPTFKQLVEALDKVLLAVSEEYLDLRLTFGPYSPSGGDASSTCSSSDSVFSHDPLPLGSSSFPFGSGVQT
FGFR1-BCR Ba/F3 cells, sequence (P11362 22-822 limits assumed, change not shown): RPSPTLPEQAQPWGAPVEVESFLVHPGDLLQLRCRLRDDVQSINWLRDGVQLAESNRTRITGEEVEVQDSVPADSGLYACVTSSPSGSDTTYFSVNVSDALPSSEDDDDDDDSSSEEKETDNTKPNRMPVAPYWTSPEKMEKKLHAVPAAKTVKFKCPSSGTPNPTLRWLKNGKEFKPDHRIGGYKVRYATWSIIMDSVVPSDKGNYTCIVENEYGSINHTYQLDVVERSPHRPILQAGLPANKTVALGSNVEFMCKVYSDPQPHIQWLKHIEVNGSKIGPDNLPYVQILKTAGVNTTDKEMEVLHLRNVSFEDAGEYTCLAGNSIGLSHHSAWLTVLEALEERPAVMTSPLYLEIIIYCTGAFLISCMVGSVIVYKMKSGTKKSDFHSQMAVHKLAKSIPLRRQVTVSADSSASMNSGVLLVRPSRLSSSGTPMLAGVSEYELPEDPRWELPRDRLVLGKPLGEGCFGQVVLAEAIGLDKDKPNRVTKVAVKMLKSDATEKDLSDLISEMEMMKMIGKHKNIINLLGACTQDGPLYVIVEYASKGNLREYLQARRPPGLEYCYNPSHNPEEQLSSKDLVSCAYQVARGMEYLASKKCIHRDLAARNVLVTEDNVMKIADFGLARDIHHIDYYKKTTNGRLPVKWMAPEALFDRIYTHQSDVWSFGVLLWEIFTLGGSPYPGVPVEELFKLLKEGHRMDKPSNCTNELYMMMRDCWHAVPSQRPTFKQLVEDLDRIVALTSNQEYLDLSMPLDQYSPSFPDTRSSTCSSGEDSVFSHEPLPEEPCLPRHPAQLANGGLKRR
FGFR1, sequence (P11362 22-822): as the sequence (P11362 22-822 limits assumed, change not shown) above
FGFR2, sequence (P21802 22-821): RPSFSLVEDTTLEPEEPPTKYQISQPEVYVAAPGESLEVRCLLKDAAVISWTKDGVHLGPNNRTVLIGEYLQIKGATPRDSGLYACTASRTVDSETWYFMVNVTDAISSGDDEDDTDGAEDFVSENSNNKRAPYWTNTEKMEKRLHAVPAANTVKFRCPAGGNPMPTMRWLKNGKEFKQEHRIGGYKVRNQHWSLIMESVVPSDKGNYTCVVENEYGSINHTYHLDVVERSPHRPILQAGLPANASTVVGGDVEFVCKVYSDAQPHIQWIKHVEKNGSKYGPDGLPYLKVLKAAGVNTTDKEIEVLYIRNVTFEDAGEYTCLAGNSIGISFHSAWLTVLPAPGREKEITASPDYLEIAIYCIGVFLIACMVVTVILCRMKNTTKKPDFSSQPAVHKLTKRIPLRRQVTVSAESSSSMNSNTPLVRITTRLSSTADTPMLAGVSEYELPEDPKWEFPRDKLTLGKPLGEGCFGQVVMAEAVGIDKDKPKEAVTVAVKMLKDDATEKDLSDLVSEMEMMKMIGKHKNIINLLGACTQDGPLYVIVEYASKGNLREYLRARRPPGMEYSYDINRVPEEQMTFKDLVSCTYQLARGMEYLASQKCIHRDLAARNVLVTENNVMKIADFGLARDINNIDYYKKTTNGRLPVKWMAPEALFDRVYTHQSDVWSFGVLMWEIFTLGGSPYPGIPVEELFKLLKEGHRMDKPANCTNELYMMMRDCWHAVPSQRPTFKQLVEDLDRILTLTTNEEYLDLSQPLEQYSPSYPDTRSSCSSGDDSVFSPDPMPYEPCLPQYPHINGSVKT
FGFR3, sequence (P22607 23-806): as the sequence (P22607 23-806 V555M) above, with M533V counted along it
FGFR3-BAIAP2L1 Ba/F3 cells, sequence (P22607 23-806 limits assumed, change not shown): as the sequence (P22607 23-806 V555M) above, with M533V counted along it

Row | Structure (SMILES) | Kd (FGFR1) | Kd (FGFR2) | Kd (FGFR3) | Kd (FGFR3 (V555M)) | Kd (FGFR4) | Ba/F3 FGFR1/FGFR3 Selectivity [1] | IC50 [1] | IC50 (FGFR1-BCR Ba/F3 cells)
1 | COC(=O)N1CCN(c2ccc(-c3n[nH]c4ccc(O[C@H](C)c5c(Cl)cncc5Cl)cc34)cn2)CC1 [Example 7, Methyl 4-[5-[5-[(1R)-1-(3,5-dichloro-4-pyridyl)ethoxy]-1H-indazol-3-yl]-2-pyridyl]piperazine-1-carboxylate] | 1 to 20 nM | 20 to 100 nM | 1 to 20 nM | 1 to 20 nM | 1 to 20 nM | 15 | 20 to 100 nM | > 300 nM
2 | C[C@@H](Oc1ccc2[nH]nc(-c3ccc(Cl)nc3)c2c1)c1c(Cl)cncc1Cl [Example 18, 3-(6-Chloro-3-pyridyl)-5-[(1R)-1-(3,5-dichloro-4-pyridyl)ethoxy]-1H-indazole] | 20 to 100 nM | 20 to 100 nM | 1 to 20 nM | 1 to 20 nM | 1 to 20 nM | 21 | 20 to 100 nM | > 300 nM
3 | C[C@@H](Oc1ccc2[nH]nc(-c3ccc(F)nc3)c2c1)c1c(Cl)cncc1Cl [Example 25, 5-[(1R)-1-(3,5-Dichloro-4-pyridyl)ethoxy]-3-(6-fluoro-3-pyridyl)-1H-indazole] | 20 to 100 nM | 20 to 100 nM | 1 to 20 nM | 1 to 20 nM | 20 to 100 nM | 22 | 20 to 100 nM | > 300 nM
4 | C[C@@H](Oc1ccc2[nH]nc(-c3ccc(N4CCCNC(=O)C4)nc3)c2c1)c1c(Cl)cncc1Cl [Example 35, 4-[5-[5-[(1R)-1-(3,5-dichloro-4-pyridyl)ethoxy]-1H-indazol-3-yl]-2-pyridyl]-1,4-diazepan-2-one] | 20 to 100 nM | 20 to 100 nM | 1 to 20 nM | 1 to 20 nM | 1 to 20 nM | 6 | 20 to 100 nM | > 300 nM
5 | C[C@@H](Oc1ccc2[nH]nc(-c3ccc(N4CCNC(=O)C4)nc3)c2c1)c1c(Cl)cncc1Cl [Example 36, 4-[5-[5-[(1R)-1-(3,5-dichloro-4-pyridyl)ethoxy]-1H-indazol-3-yl]-2-pyridyl]piperazin-2-one] | 1 to 20 nM | 1 to 20 nM | 1 to 20 nM | 1 to 20 nM | 1 to 20 nM | 23 | 1 to 20 nM | 20 to 100 nM
6 | CNCc1cc(-c2n[nH]c3ccc(O[C@H](C)c4c(Cl)cncc4Cl)cc23)cnc1N1CC2(C1)CN(S(C)(=O)=O)C2 [Example 368, (R)-1-(5-(5-(1-(3,5-dichloropyridin-4-yl)ethoxy)-1H-indazol-3-yl)-2-(6-(methylsulfonyl)-2,6-diazaspiro[3.3]heptan-2-yl)pyridin-3-yl)-N-methylmethanamine] | > 300 nM | > 300 nM | > 300 nM | 100 to 300 nM | 100 to 300 nM | – | – | –
7 | COc1cc2[nH]nc(-c3cnc(N4CC[C@@H]4C)c(S(C)(=O)=O)c3)c2cc1O[C@H](C)c1c(Cl)cncc1Cl [Example 375, 5-((R)-1-(3,5-dichloropyridin-4-yl)ethoxy)-6-methoxy-3-(6-((S)-2-methylazetidin-1-yl)-5-(methylsulfonyl)pyridin-3-yl)-1H-indazole] | > 300 nM | > 300 nM | 100 to 300 nM | 20 to 100 nM | 1 to 20 nM | – | – | –
8 | COc1cc2[nH]nc(-c3cnc(N4CC(C)(C)C4)c(S(C)(=O)=O)c3)c2cc1O[C@H](C)c1c(Cl)cncc1Cl [Example 376, (R)-5-(1-(3,5-dichloropyridin-4-yl)ethoxy)-3-(6-(3,3-dimethylazetidin-1-yl)-5-(methylsulfonyl)pyridin-3-yl)-6-methoxy-1H-indazole] | > 300 nM | 100 to 300 nM | 20 to 100 nM | 20 to 100 nM | 1 to 20 nM | – | – | –
9 | Cc1ncc(Cl)c([C@@H](C)Oc2cc3c(-c4cnc(N5CC6(C5)CN(S(C)(=O)=O)C6)c(C#N)c4)n[nH]c3cc2F)c1Cl [Example 379, 5-[5-[(1R)-1-(3,5-dichloro-2-methyl-4-pyridyl)ethoxy]-6-fluoro-1H-indazol-3-yl]-2-(2-methylsulfonyl-2,6-diazaspiro[3.3]heptan-6-yl)pyridine-3-carbonitrile] | 100 to 300 nM | 100 to 300 nM | 20 to 100 nM | 1 to 20 nM | 1 to 20 nM | – | – | –

Further lines, with some results ahead:

Row | Kd (FGFR1) | Kd (FGFR2) | Kd (FGFR3) | Kd (FGFR3 (V555M)) | Kd (FGFR4) | Structure (SMILES) | Ba/F3 FGFR1/FGFR3 Selectivity [1] | IC50 [1] | IC50 (FGFR1-BCR Ba/F3 cells)
10 | > 300 nM | > 300 nM | 20 to 100 nM | 20 to 100 nM | 20 to 100 nM | CNCc1cc(-c2n[nH]c3cc(OC)c(O[C@H](C)c4c(Cl)cncc4Cl)cc23)cnc1N1CC2(C1)CN(S(C)(=O)=O)C2 [Example 369, (R)-1-(5-(5-(1-(3,5-dichloropyridin-4-yl)ethoxy)-6-methoxy-1H-indazol-3-yl)-2-(6-(methylsulfonyl)-2,6-diazaspiro[3.3]heptan-2-yl)pyridin-3-yl)-N-methylmethanamine] | – | – | –
11 | > 300 nM | > 300 nM | 20 to 100 nM | 20 to 100 nM | 20 to 100 nM | C[C@@H](Oc1cc2c(-c3cnc(N4CCC4)c(S(C)(=O)=O)c3)n[nH]c2cc1Cl)c1c(Cl)cncc1Cl [Example 370, (R)-3-(6-(azetidin-1-yl)-5-(methylsulfonyl)pyridin-3-yl)-6-chloro-5-(1-(3,5-dichloropyridin-4-yl)ethoxy)-1H-indazole] | – | – | –
12 | > 300 nM | > 300 nM | > 300 nM | > 300 nM | 100 to 300 nM | C[C@@H](Oc1cc2c(-c3cnc(N4CC(C)(C)C4)c(CN(C)C)c3)n[nH]c2cc1Cl)c1c(Cl)cncc1Cl [Example 371, (R)-1-(5-(6-chloro-5-(1-(3,5-dichloropyridin-4-yl)ethoxy)-1H-indazol-3-yl)-2-(3,3-dimethylazetidin-1-yl)pyridin-3-yl)-N,N-dimethylmethanamine] | – | – | –
13 | 100 to 300 nM | 100 to 300 nM | 20 to 100 nM | 1 to 20 nM | 1 to 20 nM | COc1cc2[nH]nc(-c3cnc(N4CC[C@H]4C)c(S(C)(=O)=O)c3)c2cc1O[C@H](C)c1c(Cl)cncc1Cl [Example 372, 5-((R)-1-(3,5-dichloropyridin-4-yl)ethoxy)-6-methoxy-3-(6-((R)-2-methylazetidin-1-yl)-5-(methylsulfonyl)pyridin-3-yl)-1H-indazole] | – | – | –
14 | > 300 nM | > 300 nM | 100 to 300 nM | 20 to 100 nM | 20 to 100 nM | C[C@@H]1CCN1c1ncc(-c2n[nH]c3cc(Cl)c(O[C@H](C)c4c(Cl)cncc4Cl)cc23)cc1C#N [Example 374, 5-(6-chloro-5-((R)-1-(3,5-dichloropyridin-4-yl)ethoxy)-1H-indazol-3-yl)-2-((R)-2-methylazetidin-1-yl)nicotinonitrile] | – | – | –
15 | > 300 nM | > 300 nM | 100 to 300 nM | 20 to 100 nM | 1 to 20 nM | C[C@@H](Oc1cc2c(-c3cnc(N4CCC4)c(C#N)c3)n[nH]c2cc1Cl)c1c(Cl)cncc1Cl [Example 377, 2-(azetidin-1-yl)-5-[6-chloro-5-[(1R)-1-(3,5-dichloro-4-pyridyl)ethoxy]-1H-indazol-3-yl]pyridine-3-carbonitrile] | – | – | –
16 | 100 to 300 nM | 20 to 100 nM | 1 to 20 nM | 1 to 20 nM | 1 to 20 nM | C[C@@H](Oc1cc2c(-c3cnc(N4CC5(CCS(=O)(=O)C5)C4)c(C#N)c3)n[nH]c2cc1F)c1c(Cl)cncc1Cl [Example 378, 5-[5-[(1R)-1-(3,5-dichloro-4-pyridyl)ethoxy]-6-fluoro-1H-indazol-3-yl]-2-(6,6-dioxo-6λ^6-thia-2-azaspiro[3.4]octan-2-yl)pyridine-3-carbonitrile] | – | – | –
17 | 100 to 300 nM | > 300 nM | 20 to 100 nM | 20 to 100 nM | 1 to 20 nM | C[C@@H](Oc1cc2c(-c3cnc(N4CC5(CCCN(S(C)(=O)=O)C5)C4)c(C#N)c3)n[nH]c2cc1F)c1c(Cl)cncc1Cl [Example 380, 5-[5-[(1R)-1-(3,5-dichloro-4-pyridyl)ethoxy]-6-fluoro-1H-indazol-3-yl]-2-(8-methylsulfonyl-2,8-diazaspiro[3.5]nonan-2-yl)pyridine-3-carbonitrile] | – | – | –

Source: US20240109865A1, “INDAZOLE COMPOUNDS AS KINASE INHIBITORS” (TYRA BIOSCIENCES, INC., priority 2020, published 2024)
